Experimental data from ChEMBL document CHEMBL5465560, “Selectivity Literature for EUbOPEN Chemogenomic Library” (2024).
Blank lines part the entries; values can stand above or below the molecule they belong to.

Legend:
[1] = target: Dual specificity protein kinase CLK1 (Homo sapiens, UniProt P49759); assay: Selectivity interaction (Radioactive assay (Reaction Biology)) EUB0001046a CLK1
[2] = target: Dual specificity protein kinase CLK2 (Homo sapiens, UniProt P49760); assay: Selectivity interaction (Radioactive assay (Reaction Biology)) EUB0001046a CLK2
[3] = target: Dual specificity protein kinase CLK3 (Homo sapiens, UniProt P49761); assay: Selectivity interaction (Radioactive assay (Reaction Biology)) EUB0001046a CLK3
[4] = target: Dual specificity protein kinase CLK4 (Homo sapiens, UniProt Q9HAZ1); assay: Selectivity interaction (Radioactive assay (Reaction Biology)) EUB0001046a CLK4
[5] = target: Dual specificity tyrosine-phosphorylation-regulated kinase 1A (Homo sapiens, UniProt Q13627); assay: Selectivity interaction (Radioactive assay (Reaction Biology)) EUB0001046a DYRK1A
[6] = target: Dual specificity tyrosine-phosphorylation-regulated kinase 1B (Homo sapiens, UniProt Q9Y463); assay: Selectivity interaction (Radioactive assay (Reaction Biology)) EUB0001046a DYRK1B
[7] = target: T1, Dual specificity tyrosine-phosphorylation-regulated kinase 2 (Homo sapiens, UniProt Q92630); assay: Selectivity interaction (Radioactive assay (Reaction Biology)) EUB0001046a DYRK2
T1 sequence (Q92630 whole entry): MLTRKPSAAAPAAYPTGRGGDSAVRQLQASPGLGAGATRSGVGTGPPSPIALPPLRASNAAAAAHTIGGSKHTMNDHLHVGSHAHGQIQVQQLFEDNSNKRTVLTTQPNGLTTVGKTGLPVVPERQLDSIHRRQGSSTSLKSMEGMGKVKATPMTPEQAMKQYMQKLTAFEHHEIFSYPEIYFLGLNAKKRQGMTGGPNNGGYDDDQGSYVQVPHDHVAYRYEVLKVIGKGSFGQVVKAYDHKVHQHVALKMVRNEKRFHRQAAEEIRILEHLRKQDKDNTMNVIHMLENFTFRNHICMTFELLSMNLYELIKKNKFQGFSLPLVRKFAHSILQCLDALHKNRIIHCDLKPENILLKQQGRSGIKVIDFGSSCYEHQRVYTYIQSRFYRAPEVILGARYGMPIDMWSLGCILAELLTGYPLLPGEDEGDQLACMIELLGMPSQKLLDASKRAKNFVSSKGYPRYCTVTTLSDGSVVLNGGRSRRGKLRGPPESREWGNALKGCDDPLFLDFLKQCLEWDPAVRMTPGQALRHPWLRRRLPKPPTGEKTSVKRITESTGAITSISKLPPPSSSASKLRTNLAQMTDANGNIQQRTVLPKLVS

[8] = target: T2, Dual specificity tyrosine-phosphorylation-regulated kinase 3 (Homo sapiens, UniProt O43781); assay: Selectivity interaction (Radioactive assay (Reaction Biology)) EUB0001046a DYRK3
T2 sequence (O43781 whole entry): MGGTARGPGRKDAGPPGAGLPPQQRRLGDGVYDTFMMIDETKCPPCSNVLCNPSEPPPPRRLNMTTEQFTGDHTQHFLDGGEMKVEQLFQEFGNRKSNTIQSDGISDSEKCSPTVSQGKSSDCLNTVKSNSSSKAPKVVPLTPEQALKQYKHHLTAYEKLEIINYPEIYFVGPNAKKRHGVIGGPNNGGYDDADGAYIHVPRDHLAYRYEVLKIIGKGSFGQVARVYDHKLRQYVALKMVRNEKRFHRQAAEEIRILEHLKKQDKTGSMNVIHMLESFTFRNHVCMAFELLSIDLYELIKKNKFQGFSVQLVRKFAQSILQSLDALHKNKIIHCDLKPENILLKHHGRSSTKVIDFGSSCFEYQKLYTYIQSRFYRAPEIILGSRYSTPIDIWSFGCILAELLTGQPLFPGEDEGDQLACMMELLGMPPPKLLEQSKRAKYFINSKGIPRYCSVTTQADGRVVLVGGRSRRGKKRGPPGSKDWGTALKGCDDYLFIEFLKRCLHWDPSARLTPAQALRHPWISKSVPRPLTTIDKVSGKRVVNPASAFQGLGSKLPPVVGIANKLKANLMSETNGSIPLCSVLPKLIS

SRSF protein kinase 1 [9] = target: T3, SRSF protein kinase 1 (Homo sapiens, UniProt Q96SB4)
SRSF protein kinase 1 [10] = target: T3, SRSF protein kinase 1; remark: listed apart in the source
[11] = target: SRSF protein kinase 2 (Homo sapiens) (UniProt P78362)
[12] = target: Calcium/calmodulin-dependent protein kinase type II subunit alpha (Homo sapiens, UniProt Q9UQM7); assay: Selectivity interaction (Kinase panel (Enzymatic assay, microfluidic mobility shift readout, Caliper lifesciences, conc. ATP = Km for each kinase)) EUB0000678a CAMK2A
[13] = target: Cyclin-dependent kinase 2 (Homo sapiens, UniProt P24941); assay: Selectivity interaction (Kinase panel (Enzymatic assay, microfluidic mobility shift readout, Caliper lifesciences, conc. ATP = Km for each kinase)) EUB0000678a CDK2
[14] = target: T4, Interleukin-1 receptor-associated kinase 4 (Homo sapiens, UniProt Q9NWZ3); assay: Selectivity interaction (Kinase panel (Enzymatic assay, microfluidic mobility shift readout, Caliper lifesciences, conc. ATP = Km for each kinase)) EUB0000678a IRAK4
T4 sequence (Q9NWZ3 whole entry): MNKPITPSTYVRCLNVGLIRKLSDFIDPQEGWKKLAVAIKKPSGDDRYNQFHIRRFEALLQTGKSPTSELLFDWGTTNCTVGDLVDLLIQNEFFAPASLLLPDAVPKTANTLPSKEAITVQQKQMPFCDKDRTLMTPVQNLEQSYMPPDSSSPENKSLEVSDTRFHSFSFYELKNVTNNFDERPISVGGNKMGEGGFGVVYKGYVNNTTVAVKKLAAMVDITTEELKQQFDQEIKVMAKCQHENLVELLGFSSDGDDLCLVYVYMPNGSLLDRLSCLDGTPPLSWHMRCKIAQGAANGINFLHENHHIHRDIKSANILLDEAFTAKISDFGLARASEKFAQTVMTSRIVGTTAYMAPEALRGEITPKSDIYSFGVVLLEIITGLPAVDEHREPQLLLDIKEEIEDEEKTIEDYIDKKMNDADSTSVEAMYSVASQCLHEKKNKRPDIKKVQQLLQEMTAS

[15] = target: Tyrosine-protein kinase JAK1 (Homo sapiens, UniProt P23458); assay: Selectivity interaction (Kinase panel (Enzymatic assay, microfluidic mobility shift readout, Caliper lifesciences, conc. ATP = Km for each kinase)) EUB0000678a JAK1
[16] = target: Tyrosine-protein kinase JAK2 (Homo sapiens, UniProt O60674); assay: Selectivity interaction (Kinase panel (Enzymatic assay, microfluidic mobility shift readout, Caliper lifesciences, conc. ATP = Km for each kinase)) EUB0000678a JAK2
[17] = target: Mitogen-activated protein kinase 14 (Homo sapiens, UniProt Q16539); assay: Selectivity interaction (Kinase panel (Enzymatic assay, microfluidic mobility shift readout, Caliper lifesciences, conc. ATP = Km for each kinase)) EUB0000678a MAPK14
[18] = target: Hepatocyte growth factor receptor (Homo sapiens, UniProt P08581); assay: Selectivity interaction (Kinase panel (Enzymatic assay, microfluidic mobility shift readout, Caliper lifesciences, conc. ATP = Km for each kinase)) EUB0000678a MET
[19] = target: Serine/threonine-protein kinase mTOR (Homo sapiens, UniProt P42345); assay: Selectivity interaction (Kinase panel (KinaseGlo Luminescent Kinase Assay, Promega)) EUB0000678a MTOR
[20] = target: Phosphatidylinositol 3-kinase catalytic subunit type 3 (Homo sapiens, UniProt Q8NEB9); assay: Selectivity interaction (Kinase panel (KinaseGlo Luminescent Kinase Assay, Promega)) EUB0000678a PIK3C3
[21] = target: cAMP-dependent protein kinase catalytic subunit alpha (Homo sapiens, UniProt P17612); assay: Selectivity interaction (Kinase panel (Enzymatic assay, microfluidic mobility shift readout, Caliper lifesciences, conc. ATP = Km for each kinase)) EUB0000678a PRKACA
[22] = target: Ribosomal protein S6 kinase alpha-1 (Homo sapiens, UniProt Q15418); assay: Selectivity interaction (Kinase panel (Enzymatic assay, microfluidic mobility shift readout, Caliper lifesciences, conc. ATP = Km for each kinase)) EUB0000678a RPS6KA1
[23] = target: Tyrosine-protein kinase SYK (Homo sapiens, UniProt P43405); assay: Selectivity interaction (Kinase panel (Enzymatic assay, microfluidic mobility shift readout, Caliper lifesciences, conc. ATP = Km for each kinase)) EUB0000678a SYK
[24] = target: Non-receptor tyrosine-protein kinase TYK2 (Homo sapiens, UniProt P29597); assay: Selectivity interaction (Kinase panel (Enzymatic assay, microfluidic mobility shift readout, Caliper lifesciences, conc. ATP = Km for each kinase)) EUB0000678a TYK2
[25] = Selectivity interaction (Kinase panel (cellular selectivity, Bright-Glo proliferation assay in BaF3 Cell line, Promega)) EUB0000678a ALK
[26] = Selectivity interaction (Kinase panel (cellular selectivity, Bright-Glo proliferation assay in BaF3 Cell line, Promega)) EUB0000678a BMX
[27] = Selectivity interaction (Kinase panel (cellular selectivity, Bright-Glo proliferation assay in BaF3 Cell line, Promega)) EUB0000678a KDR
[28] = as above; remark: listed apart in the source
[29] = Selectivity interaction (Kinase panel (cellular selectivity, Bright-Glo proliferation assay in BaF3 Cell line, Promega)) EUB0000678a LYN
[30] = Selectivity interaction (Kinase panel (cellular selectivity, Bright-Glo proliferation assay in BaF3 Cell line, Promega)) EUB0000678a MET
[31] = Selectivity interaction (Kinase panel (cellular selectivity, Bright-Glo proliferation assay in BaF3 Cell line, Promega)) EUB0000678a RET
[32] = Selectivity interaction (Kinase panel (cellular selectivity, Bright-Glo proliferation assay in BaF3 Cell line, Promega)) EUB0000678a SRC
[33] = Selectivity interaction (Kinase panel (cellular selectivity, Bright-Glo proliferation assay in BaF3 Cell line, Promega)) EUB0000678a SYK
[34] = Selectivity interaction (Kinase panel (cellular selectivity, Bright-Glo proliferation assay in BaF3 Cell line, Promega)) EUB0000678a TEK
[35] = Selectivity interaction (Kinase panel (cellular selectivity, Bright-Glo proliferation assay in BaF3 Cell line, Promega)) EUB0000678a FLT1
[36] = Selectivity interaction (Kinase panel (cellular selectivity, Bright-Glo proliferation assay in BaF3 Cell line, Promega)) EUB0000678a FLT4
[37] = Selectivity interaction (Kinase panel (cellular selectivity, Bright-Glo proliferation assay in BaF3 Cell line, Promega)) EUB0000678a INSR
[38] = Selectivity interaction (Kinase panel (cellular selectivity, Bright-Glo proliferation assay in BaF3 Cell line, Promega)) EUB0000678a JAK2
[39] = Selectivity interaction (Kinase panel (cellular selectivity, Bright-Glo proliferation assay in BaF3 Cell line, Promega)) EUB0000678a ROS1
[40] = Selectivity interaction (Kinase panel (cellular selectivity, Bright-Glo proliferation assay in BaF3 Cell line, Promega)) EUB0000678a TYK2
[41] = Selectivity interaction (Kinase panel (cellular selectivity, Bright-Glo proliferation assay in BaF3 Cell line, Promega)) EUB0000678a EPHB1
[42] = Selectivity interaction (Kinase panel (cellular selectivity, Bright-Glo proliferation assay in BaF3 Cell line, Promega)) EUB0000678a NTRK2

T3 sequence (Q96SB4 whole entry): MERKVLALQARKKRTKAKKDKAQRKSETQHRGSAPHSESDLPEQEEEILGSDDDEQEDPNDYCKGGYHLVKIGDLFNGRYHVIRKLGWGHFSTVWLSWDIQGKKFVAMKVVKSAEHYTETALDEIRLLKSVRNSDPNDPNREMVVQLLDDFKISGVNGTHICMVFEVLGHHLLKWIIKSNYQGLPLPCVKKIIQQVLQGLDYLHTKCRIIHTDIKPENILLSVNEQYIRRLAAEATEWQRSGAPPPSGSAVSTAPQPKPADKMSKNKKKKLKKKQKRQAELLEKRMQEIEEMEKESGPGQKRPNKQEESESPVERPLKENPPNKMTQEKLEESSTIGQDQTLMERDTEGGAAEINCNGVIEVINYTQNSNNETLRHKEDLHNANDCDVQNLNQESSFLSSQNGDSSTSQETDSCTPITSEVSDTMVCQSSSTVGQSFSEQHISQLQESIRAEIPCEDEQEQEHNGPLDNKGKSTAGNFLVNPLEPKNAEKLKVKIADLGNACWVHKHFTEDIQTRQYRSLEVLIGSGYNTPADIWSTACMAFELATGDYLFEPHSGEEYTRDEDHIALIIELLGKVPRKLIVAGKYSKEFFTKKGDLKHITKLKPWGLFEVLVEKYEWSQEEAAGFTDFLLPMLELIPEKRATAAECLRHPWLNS
Chain of Dual specificity protein kinase CLK2 (P49760 whole entry): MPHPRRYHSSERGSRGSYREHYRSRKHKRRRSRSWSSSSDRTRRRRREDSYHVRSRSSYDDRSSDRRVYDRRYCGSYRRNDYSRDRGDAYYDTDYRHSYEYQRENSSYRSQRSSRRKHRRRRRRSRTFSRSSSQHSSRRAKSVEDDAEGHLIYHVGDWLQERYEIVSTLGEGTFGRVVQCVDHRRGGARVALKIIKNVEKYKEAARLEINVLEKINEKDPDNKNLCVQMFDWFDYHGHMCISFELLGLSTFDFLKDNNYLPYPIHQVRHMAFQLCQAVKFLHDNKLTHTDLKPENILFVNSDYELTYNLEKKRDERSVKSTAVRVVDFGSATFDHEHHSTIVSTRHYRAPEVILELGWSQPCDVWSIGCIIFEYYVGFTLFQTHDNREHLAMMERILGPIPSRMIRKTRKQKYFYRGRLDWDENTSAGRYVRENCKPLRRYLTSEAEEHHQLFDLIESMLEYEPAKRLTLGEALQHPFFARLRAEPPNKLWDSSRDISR
Chain of Hepatocyte growth factor receptor (P08581 whole entry): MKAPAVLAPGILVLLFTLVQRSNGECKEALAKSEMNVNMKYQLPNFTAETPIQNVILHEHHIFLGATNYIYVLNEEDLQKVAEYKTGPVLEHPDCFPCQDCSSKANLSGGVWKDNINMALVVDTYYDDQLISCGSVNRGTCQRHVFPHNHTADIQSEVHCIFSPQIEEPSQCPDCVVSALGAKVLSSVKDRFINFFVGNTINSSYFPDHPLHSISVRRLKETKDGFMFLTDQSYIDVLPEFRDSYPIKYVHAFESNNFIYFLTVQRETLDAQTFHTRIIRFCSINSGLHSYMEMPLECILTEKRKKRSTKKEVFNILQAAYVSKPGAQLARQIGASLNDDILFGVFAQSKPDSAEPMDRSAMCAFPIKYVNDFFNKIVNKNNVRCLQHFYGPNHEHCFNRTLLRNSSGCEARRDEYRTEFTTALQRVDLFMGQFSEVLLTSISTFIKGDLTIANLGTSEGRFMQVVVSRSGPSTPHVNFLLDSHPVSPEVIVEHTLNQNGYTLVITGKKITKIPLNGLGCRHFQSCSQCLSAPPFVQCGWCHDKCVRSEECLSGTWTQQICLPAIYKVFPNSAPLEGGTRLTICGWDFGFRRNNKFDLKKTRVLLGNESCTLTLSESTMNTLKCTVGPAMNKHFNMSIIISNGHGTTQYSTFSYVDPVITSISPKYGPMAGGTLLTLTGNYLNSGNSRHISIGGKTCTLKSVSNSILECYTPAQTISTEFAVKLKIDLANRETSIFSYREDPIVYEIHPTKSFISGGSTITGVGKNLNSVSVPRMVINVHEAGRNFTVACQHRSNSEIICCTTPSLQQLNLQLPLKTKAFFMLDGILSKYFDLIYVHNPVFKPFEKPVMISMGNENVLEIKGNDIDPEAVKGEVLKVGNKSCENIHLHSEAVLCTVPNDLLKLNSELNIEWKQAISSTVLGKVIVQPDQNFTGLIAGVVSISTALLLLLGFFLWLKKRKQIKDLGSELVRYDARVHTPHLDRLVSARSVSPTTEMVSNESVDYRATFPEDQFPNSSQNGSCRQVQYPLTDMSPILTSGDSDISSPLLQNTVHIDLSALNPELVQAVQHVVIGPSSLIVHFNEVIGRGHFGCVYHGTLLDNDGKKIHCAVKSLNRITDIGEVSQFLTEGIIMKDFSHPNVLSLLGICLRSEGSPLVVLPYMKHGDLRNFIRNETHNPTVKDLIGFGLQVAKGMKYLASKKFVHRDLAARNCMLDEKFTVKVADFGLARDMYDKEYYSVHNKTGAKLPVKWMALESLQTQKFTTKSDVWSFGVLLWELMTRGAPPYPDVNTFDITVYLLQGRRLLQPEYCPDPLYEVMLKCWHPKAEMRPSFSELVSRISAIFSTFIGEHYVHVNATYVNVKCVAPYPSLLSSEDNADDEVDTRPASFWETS
Chain of Dual specificity protein kinase CLK4 (Q9HAZ1 whole entry): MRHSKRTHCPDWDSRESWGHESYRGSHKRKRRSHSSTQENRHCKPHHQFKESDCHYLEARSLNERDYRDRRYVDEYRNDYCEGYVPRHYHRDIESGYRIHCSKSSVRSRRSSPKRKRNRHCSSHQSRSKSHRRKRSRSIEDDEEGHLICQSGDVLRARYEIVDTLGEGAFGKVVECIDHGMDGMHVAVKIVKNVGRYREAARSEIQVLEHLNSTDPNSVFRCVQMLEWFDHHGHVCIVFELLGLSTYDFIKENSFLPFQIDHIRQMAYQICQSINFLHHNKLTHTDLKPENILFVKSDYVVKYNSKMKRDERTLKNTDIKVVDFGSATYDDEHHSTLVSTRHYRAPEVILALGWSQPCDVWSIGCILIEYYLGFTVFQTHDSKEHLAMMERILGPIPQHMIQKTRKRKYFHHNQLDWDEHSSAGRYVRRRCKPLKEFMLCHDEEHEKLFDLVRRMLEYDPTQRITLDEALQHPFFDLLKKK
Chain of Tyrosine-protein kinase JAK2 (O60674 whole entry): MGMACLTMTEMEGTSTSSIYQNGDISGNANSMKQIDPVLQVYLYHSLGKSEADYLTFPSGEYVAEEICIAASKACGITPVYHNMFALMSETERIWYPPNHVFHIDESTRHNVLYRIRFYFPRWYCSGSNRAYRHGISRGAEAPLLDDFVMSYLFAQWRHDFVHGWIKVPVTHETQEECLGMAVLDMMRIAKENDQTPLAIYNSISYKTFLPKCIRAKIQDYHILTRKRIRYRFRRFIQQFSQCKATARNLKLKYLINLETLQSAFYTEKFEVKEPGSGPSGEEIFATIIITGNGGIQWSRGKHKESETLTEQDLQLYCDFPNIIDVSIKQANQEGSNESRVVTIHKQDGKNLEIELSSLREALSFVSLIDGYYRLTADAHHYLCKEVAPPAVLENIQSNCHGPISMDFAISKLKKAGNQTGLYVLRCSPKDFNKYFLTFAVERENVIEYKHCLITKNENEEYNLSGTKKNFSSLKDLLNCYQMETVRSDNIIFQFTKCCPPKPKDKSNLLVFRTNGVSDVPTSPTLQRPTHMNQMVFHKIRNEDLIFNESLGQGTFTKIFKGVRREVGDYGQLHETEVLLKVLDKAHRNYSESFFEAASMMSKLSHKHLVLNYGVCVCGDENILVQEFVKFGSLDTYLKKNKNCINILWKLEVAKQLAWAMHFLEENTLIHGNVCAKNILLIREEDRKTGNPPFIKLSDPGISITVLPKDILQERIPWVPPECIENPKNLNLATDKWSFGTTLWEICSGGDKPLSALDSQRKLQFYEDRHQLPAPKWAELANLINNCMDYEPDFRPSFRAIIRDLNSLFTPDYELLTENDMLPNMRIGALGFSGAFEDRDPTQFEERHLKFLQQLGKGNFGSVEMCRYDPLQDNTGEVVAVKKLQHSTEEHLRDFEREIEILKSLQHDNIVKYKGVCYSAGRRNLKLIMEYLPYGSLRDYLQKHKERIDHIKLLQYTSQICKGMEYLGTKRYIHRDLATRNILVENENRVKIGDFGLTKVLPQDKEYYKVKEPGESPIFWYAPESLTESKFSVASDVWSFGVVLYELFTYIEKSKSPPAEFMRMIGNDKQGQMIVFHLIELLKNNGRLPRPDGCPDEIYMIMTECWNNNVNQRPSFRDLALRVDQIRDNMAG
Chain of Calcium/calmodulin-dependent protein kinase type II subunit alpha (Q9UQM7 whole entry): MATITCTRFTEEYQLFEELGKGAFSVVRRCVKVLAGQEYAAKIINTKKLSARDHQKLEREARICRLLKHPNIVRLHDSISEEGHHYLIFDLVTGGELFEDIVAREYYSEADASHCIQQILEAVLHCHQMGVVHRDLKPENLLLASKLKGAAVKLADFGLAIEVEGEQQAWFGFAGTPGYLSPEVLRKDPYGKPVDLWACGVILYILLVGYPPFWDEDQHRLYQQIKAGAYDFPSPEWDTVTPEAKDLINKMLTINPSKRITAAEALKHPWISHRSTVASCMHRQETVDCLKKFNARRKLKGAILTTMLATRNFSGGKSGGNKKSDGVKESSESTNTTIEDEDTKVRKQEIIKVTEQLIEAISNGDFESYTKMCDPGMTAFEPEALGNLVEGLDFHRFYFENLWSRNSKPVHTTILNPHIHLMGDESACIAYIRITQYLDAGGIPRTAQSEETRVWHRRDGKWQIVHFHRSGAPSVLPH
Chain of Mitogen-activated protein kinase 14 (Q16539 whole entry): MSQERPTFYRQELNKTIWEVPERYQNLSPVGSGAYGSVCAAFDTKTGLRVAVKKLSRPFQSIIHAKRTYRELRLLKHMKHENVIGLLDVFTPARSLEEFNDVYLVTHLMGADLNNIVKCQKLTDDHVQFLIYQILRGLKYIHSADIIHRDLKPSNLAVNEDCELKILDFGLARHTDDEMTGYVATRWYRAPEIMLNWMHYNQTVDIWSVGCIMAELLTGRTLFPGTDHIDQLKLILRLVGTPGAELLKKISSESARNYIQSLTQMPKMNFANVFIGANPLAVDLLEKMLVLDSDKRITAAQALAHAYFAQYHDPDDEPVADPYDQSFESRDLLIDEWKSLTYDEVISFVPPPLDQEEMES

- IC50 [1]: > 10 µM
- IC50 [2]: > 10 µM
- IC50 [3]: > 10 µM
- IC50 [4]: > 10 µM
- IC50 [5]: > 10 µM
- IC50 [6]: > 10 µM
- IC50 [7]: > 10 µM
- IC50 [8]: > 10 µM
- IC50 (SRSF protein kinase 1 [9]): > 50 µM
- dTM (SRSF protein kinase 1 [10]): 0.5 K
- dTM [11]: 0.3 K
SMILES: CN(c1ncccc1CNc1ccnc(-c2cc3cc(Cl)ccc3[nH]2)n1)S(C)(=O)=O

- IC50 [12]: > 10 µM
- IC50 [13]: > 10 µM
- IC50 [14]: > 10 µM
- IC50 [15]: > 10 µM
- IC50 [16]: > 10 µM
- IC50 [17]: > 10 µM
- IC50 [18]: > 10 µM
- IC50 [19]: > 9 µM
- IC50 [20]: > 9 µM
- IC50 [21]: > 10 µM
- IC50 [22]: > 10 µM
- IC50 [23]: > 10 µM
- IC50 [24]: > 10 µM
- IC50 [25]: 3.08 µM
- IC50 [26]: 3.41 µM
- IC50 [27]: 1.45 µM
- IC50 [28]: 0.938 µM
- IC50 [29]: 3.02 µM
- IC50 [30]: 3.01 µM
- IC50 [31]: 3.35 µM
- IC50 [32]: 2.97 µM
- IC50 [33]: 5.36 µM
- IC50 [34]: 2.05 µM
- IC50 [35]: 1.51 µM
- IC50 [36]: 2.07 µM
- IC50 [37]: 3.37 µM
- IC50 [38]: 2.88 µM
- IC50 [39]: 3.26 µM
- IC50 [40]: 3.3 µM
- IC50 [41]: 3.04 µM
- IC50 [42]: 3.14 µM
SMILES: CCN1CCN(c2ccc(Nc3cc(N(C)C(=O)Nc4c(Cl)c(OC)cc(OC)c4Cl)ncn3)cc2)CC1 [INFIGRATINIB]
